Source: US6251932A, “Immunophilin ligands” (ASTA Medica AG, priority 1998, dated 2001)
Read-outs that look alike come from different tables or passages of the source.

What was measured:
human cyclophilin B = human cyclophilin B (Homo sapiens, UniProt P23284); test: PPIase test: inhibition of human cyclophilin B (Suc-Ala-Ala-Pro-Phe-Nan, chymotrypsin); format: biochemical; details: Compound [10 μmol]; preincubated 15 minutes at 4° C. with 10 nmol Cyp B
Protocol: The compounds of Formula I of the present invention are distinguished by immunophilin binding and inhibit isomerase activity. This prolyl isomerase activity is tested according to a conventional, well known enzyme test described in G. Fischer, H. Bang. Mech, Biomed. Biochim. Acta, 43, 1101-1111; G. Fischer, H. Bang, A Schellenberger, Biochim. Biophys. Acta, 791, 87-97, 1984; D. H. Rich et al., J. Med. Chem. 38, 4164-4170, 1995.
The compounds of Formula I of the present invention are distinguished by immunophilin binding and inhibit its peptidyl-prolyl cis-trans isomerase (PPlase) activity. […] This PPlase activity is determined by the aforementioned well known enzyme test.
The compounds of Formula I are preincubated at 4° C. for 15 minutes together with 10 nmol of Cyp B. The enzyme reaction is started using the test peptide Suc-Ala-Ala-Pro-Phe-Nan after addition of chymotrypsin and HEPES buffer. The change in extinction at 390 nm is then monitored and analyzed. The photometrically determined change in extinction results from two subreactions: a) the rapid chymotryptic cleavage of the trans peptide; b) the nonenzymatic cis-trans isomerization, which is catalysed by cyclophilins.

[1] = system: T cells stimulated with OKT-3; test: IL-2 proliferation test: 3H-thymidine incorporation in T cells stimulated with OKT-3 (CD3-induced proliferation); format: cell-based; details: Compound [10 μmol], OKT-3 1 μg/ml, 45 hours; for inhibition: T-cell
Protocol: The IL-2 proliferation test is based on the incorporation of ^3 H-thymidine in T cells stimulated with OKT-3 (human anti-CD-3-antibodies) and is carried out by inoculating 100,000 T cells into microtitre plates in 150 μl of culture medium per well, stimulated by addition of OKT-3 (1 μg/ml) and incubated for 45 hours in each case with one of the compounds of Formula I. After this incubation time, 10 μl of the ^3 H-thymidine solution (0.5 μCi) are pipetted into each well. The mixture is then incubated in a 5% CO2 atmosphere at 37° C. for 6 hours. After harvesting the cells, the radioactivity is quantified in a B-counter.

IL-2 proliferation [2] = test: Inhibition of IL-2 proliferation (published indoline-2-carboxamide); format: cell-based; details: 10 μmol; new measurements
Source text: A further compound having immunosuppressant properties was discovered during the screening of substance mixtures (G. Quinkert, H. Bang and D. Reichert, Helv. Chim. Acta 1996, 79, 1260).

IL-2 proliferation [3] = details: published, cited from earlier work
[4] = kidneys, neurotoxicity; cited from earlier work
FKBP = details: cited from earlier work
[5] = system: bronchial asthma and underlying inflammations; details: animal experiments and clinical studies; cited from earlier work

Chain of human cyclophilin B (P23284 34-216): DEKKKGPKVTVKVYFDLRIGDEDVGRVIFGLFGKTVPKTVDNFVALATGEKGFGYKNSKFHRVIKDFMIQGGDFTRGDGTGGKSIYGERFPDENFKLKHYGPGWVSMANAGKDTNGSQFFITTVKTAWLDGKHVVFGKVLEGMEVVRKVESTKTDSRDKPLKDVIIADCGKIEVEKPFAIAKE

Compound	inhibition at 10 µM (human cyclophilin B) [%]	inhibition [1] [%]	also measured
COC(=O)/C=C/c1ccc(NC(=O)[C@@H]2Cc3ccccc3N2S(=O)(=O)c2ccc(NC(C)=O)cc2)cc1 [Example 13, Methyl (E)-({(2S)-1-[4(acetylamino)phenylsulfonyl]indoln-2-yl}-carbonyl)-4-(aminophenyl)acrylate]	0 to 20	46	–
CC(=O)Nc1ccc(S(=O)(=O)N2c3ccccc3C[C@@H]2C(=O)N2c3ccccc3C[C@@H]2C(=O)O)cc1 (racemic) [Example 23, (2RS)-1-({(2RS)-1-[4-(acetylamino)phenylsulfonyl]indolin-2-yl}-carbonyl)indoline-2-carboxylic acid]	0 to 20	46	–
COCCNC(=O)[C@@H]1Cc2ccccc2N1C(=O)C1CCN(S(=O)(=O)c2ccc(NC(C)=O)cc2)CC1 [Example 9]	40 to 60	75	–
COC(=O)[C@H](CCCCNC(=O)OCc1ccccc1)NC(=O)[C@@H]1Cc2ccccc2N1S(=O)(=O)c1ccc(NC(C)=O)cc1 [Example 12, (S)-N-{(2S)-1-[4-(acetylamino)phenylsulfonyl]indolin-2-yl}carbonyl-N-(benzyloxycarbonyl)lysine methyl ester]	60	79	–
COCCNC(=O)C1Cc2ccccc2N1C(=O)C1Cc2ccccc2N1S(=O)(=O)c1ccc(NC(C)=O)cc1 (racemic) [Example 5, (2R,S)-1-[((2R,S)-1-(4-acetylaminophenylsulfonyl)indolin-2-yl)-carbonyl]-N-(2-methoxyethyl)indoline-2-carbamide]	20 to 40	85	–
COCCNC(=O)[C@@H]1Cc2ccccc2N1S(=O)(=O)c1cccc2cccnc12 [Example 10, (2S)-1-[(8-quinolinylsulfonyl)]-N-(2-methoxyethyl)indolinecarbamide]	20 to 40	59	–
COCCNC(=O)[C@H]1Cc2ccccc2N1C(=O)[C@@H]1Cc2ccccc2N1S(=O)(=O)c1ccc(NC(C)=O)cc1 [Example 2]	40	85	–
indoline-2-carboxamide	–	–	IL-2-dependent inhibition of proliferation (IL-2 proliferation [2]): 29%; inhibition of IL-2 proliferation (IL-2 proliferation [3]; 1 μmol): 12%; inhibition of IL-2 proliferation (IL-2 proliferation [3]; 10 μmol): 77%
COCCNC(=O)[C@H]1Cc2ccccc2N1C(=O)[C@H]1Cc2ccccc2N1S(=O)(=O)c1ccc(NC(C)=O)cc1 [Example 4]	60	85	–
CC(=O)Nc1ccc(S(=O)(=O)N2c3ccccc3C[C@H]2C(=O)N[C@@H](CC(C)C)C(=O)O)cc1 [Example 11]	–	–	Inhibition [%] of PPIase activity (human cyclophilin B): 40%; CD3-induced inhibition of proliferation in [%] [1]: 61%
Cc1ccc(S(=O)(=O)N2c3ccccc3C[C@H]2C(=O)N2c3ccccc3C[C@H]2C(=O)NCCc2ccccn2)cc1 [Example 18, (2S)-1-[((2S)-1-(4-methylphenylsulfonyl)indolin-2-yl)carbonyl]-N^2-(ethyl-2-pyridine)indoline-2-carbamide]	40	59	–
COCCNC(=O)[C@@H]1Cc2ccccc2N1C(=O)[C@@H]1Cc2ccccc2N1S(=O)(=O)c1cccc2ccccc12 [Example 14, (2S)-1-[((2S)-1-(1-naphthalenylsulfonyl)indolin-2-yl)carbonyl]-N-(2-methoxyethyl)indoline-2-carbamide]	20	48	–
C=CC[C@@H]1/C=C(\C)C[C@H](C)C[C@H](OC)[C@H]2O[C@@](O)(C(=O)C(=O)N3CCCC[C@H]3C(=O)O[C@H](/C(C)=C/[C@@H]3CC[C@@H](O)[C@H](OC)C3)[C@H](C)[C@@H](O)CC1=O)[C@H](C)C[C@@H]2OC [FK 506]	–	–	side effects [4]: manifold side effects, in particular of the kidneys, and neurotoxicity; binding to FKBP (FKBP): bind with high affinity; therapeutic effect in bronchial asthma [5]: favorable therapeutic in bronchial asthma and underlying inflammations
COCCNC(=O)[C@@H]1Cc2ccccc2N1C(=O)[C@H]1Cc2ccccc2N1S(=O)(=O)c1ccc(NC(C)=O)cc1 [Example 3]	40	84	–
CC(=O)Nc1ccc(S(=O)(=O)N2c3ccccc3C[C@@H]2C(=O)O)cc1 [Example 21, (2R)-[4-(acetylamino)phenylsulfonyl]indoline-2-carboxylic acid]	0 to 20	12	–
Cc1ccc(S(=O)(=O)N2c3ccccc3C[C@H]2C(=O)N2c3ccccc3C[C@H]2C(=O)NCCN2CCOCC2)cc1 [Example 17, (2S)-1-[((2S)-1-(4-methylphenylsulfonyl)indolin-2-yl)carbonyl]-N^2-(N-ethylmorpholine)indoline-2-carbamide]	40	57	–
CO[C@H]1C[C@@H]2CC[C@@H](C)[C@@](O)(O2)C(=O)C(=O)N2CCCC[C@H]2C(=O)O[C@H]([C@H](C)C[C@@H]2CC[C@@H](O)[C@H](OC)C2)CC(=O)[C@H](C)/C=C(\C)[C@@H](O)[C@@H](OC)C(=O)[C@H](C)C[C@H](C)/C=C/C=C/C=C/1C [rapamycin]	–	–	side effects [4]: manifold side effects, in particular of the kidneys, and neurotoxicity
COC(=O)[C@H]1Cc2ccccc2N1C(=O)[C@H]1Cc2ccccc2N1S(=O)(=O)c1ccc(NC(C)=O)cc1 (racemic) [Example 22, Methyl (2RS)-1-({(2RS)-1-[4-(acetylamino)phenylsulfonyl]indolin-2-yl}carbonyl)indoline-2-carboxylate]	30	43	–
Cc1ccc(S(=O)(=O)N2c3ccccc3C[C@H]2C(=O)N2c3ccccc3C[C@H]2C(=O)NCCCn2ccnc2)cc1 [Example 16, (2S)-1-[((2S)-1-(4-methylphenylsulfonyl)indolin-2-yl)carbonyl]-N^3-(N-propylimidazole)indoline-2-carbamide]	20 to 40	54	–
COCCNC(=O)[C@@H]1Cc2ccccc2N1C(=O)C1CCN(S(=O)(=O)c2ccc(N)cc2)CC1 [Example 8, (2S)-1-[((2S)-1-(4-aminophenylsulfonyl)-4-piperidinyl)carbonyl]-N-(2-methoxyethyl)indoline-2-carbamide]	40 to 60	71	–
COC(=O)[C@H]1Cc2ccccc2N1S(=O)(=O)c1ccc(NC(C)=O)cc1 [Example 20, Methyl (2R)-[4-(acetylamino)phenylsulfonyl]indoline-2-carboxylate]	0 to 20	15	–
COCCNC(=O)[C@@H]1Cc2ccccc2N1C(=O)[C@@H]1Cc2ccccc2N1S(=O)(=O)c1ccc(N)cc1 [Example 6, (2S)-1-[((2S)-1-(4-aminophenylsulfonyl)indolin-2-yl)carbonyl]-N-(2-methoxyethyl)indoline-2-carbamide]	40	84	–
COCCNC(=O)[C@@H]1Cc2ccccc2N1C(=O)[C@@H]1Cc2ccccc2N1S(=O)(=O)c1ccc2ccccc2c1 [Example 15, (2S)-1-[((2S)-1-(2-Naphthalenylsulfonyl)indolin-2-yl)carbonyl]-N-(2-methoxyethyl)indoline-2-carbamide]	20	56	–
COCCNC(=O)[C@@H]1Cc2ccccc2N1C(=O)[C@@H]1Cc2ccccc2N1S(=O)(=O)c1ccc(NC(C)=O)cc1 [Example 1]	40	83	–
COCCNC(=O)[C@@H]1Cc2ccccc2N1C(=O)[C@@H]1CCCN1S(=O)(=O)c1ccc(N)cc1 [Example 7, (^2 S)-1-[((2S)-1-(4-aminophenylsulfonyl)prolyl)carbonyl]-N-(2-methoxyethyl)indoline-2-carbamide]	40	79	–
Cc1ccc(S(=O)(=O)N2c3ccccc3C[C@H]2C(=O)N2c3ccccc3C[C@H]2C(=O)Nc2ccncc2)cc1 [Example 19, (2S)-1-[((2S)-1-(4-methylphenylsulfonyl)indolin-2-yl)carbonyl]-(4-pyridine)indoline-2-carbamide]	40	64	–
